In patent publication US7625863B2, “Treatment of patients with dysfunctional cardiac sodium channels” (The MetroHealth System, priority 2006, dated 2009):
Values joined by “and” are separate entries in the source; they are usually repeats but may differ in a detail not shown here. Equal values may be shown once. “Also recorded” adds a separate entry of the source. Where no end group is shown, it is not given here.

How the values were obtained:
C373Y-SCN5A channels = biological target: T1, C373Y-SCN5A channels (Homo sapiens, UniProt Q14524, C373Y); assay type: cell-based
T1 construct: expressed in transfected cells; host or cells: HEK293
Procedure: (§1) Expression of hNav1.5 in HEK293 Cells: Transient transfections of SCN5A expressed in GFP-IRES were performed in human embryonic kidney cells (HEK293) with the Polyfect transfection kit (Qiagen, Valencia, Calif.) according to the manufacturer's protocol for 24 hours.
(§2) Electrophysiology: Macroscopic sodium currents from transfected cells were recorded using the whole-cell configuration of the patch-clamp technique as previously described. (Deschenes I, et al., Cardiovasc Res. 2000; 46:55-65). Cells that emitted green fluorescence and expressed INa-like currents were considered to express mutants and/or polymorphisms of hNav1.5. Patch electrodes were made from 8161 Corning glass (Dow-Corning, Midland, Mich.). Low-resistance electrodes (<2 MΩ) were used, and a routine-series resistance compensation of an Axopatch 200A was performed to values >80% to minimize the voltage-clamp errors. Voltage-clamp command pulses were generated by a microcomputer using PCLAMP software version 9.02 (Axon Instruments, Foster City, Calif.). To stabilize the current, experiments were performed 10 minutes after entering whole-cell configuration. Membrane currents were filtered at 5 kHz and digitized with 12-bit resolution. […]
(§3) Voltage dependence of steady-state inactivation was determined by 500-ms prepulses ranging from −140 to −30 mV. […]

[1] = test system: WT-SCN5A+C373Y-SCN5A channels; assay type: cell-based, human
Procedure: as §1, §2, §3

[2] = biological target: T2, H558R-SCN5A+R282H-C373Y-SCN5A channels (Homo sapiens, UniProt Q14524, H558R); assay: MTSET block of whole-cell sodium current, H558R-SCN5A+R282H-C373Y-SCN5A; assay type: cell-based; conditions: 1 μmol/L MTSET, after 10 minutes, 1 μg + 1 μg, HEK293
T2 construct: expressed in transfected cells; host or cells: HEK293
Procedure: as §1, §2, §3

WT channels (Nav1.5) = biological target: T3, WT channels (Nav1.5) (Homo sapiens, UniProt Q14524); assay: Whole cell patch clamp of sodium currents in HEK293 cells co-expressing WT channels and polymorphic peptide; assay type: cell-based
T3 construct: expressed in transfected cells; host or cells: HEK293
From the text: Creation of Channel Fragments: Channel fragments were created by amplifying a small piece of either the wild type or the H558R polymorphic channel. These pieces were ligated into either the pcDNA3 vector or the pECFP-N3 vector (BD Biosciences Clonetech). The sequences for the fragments are: Wild Type 20 amino acid-[…] (SEQ ID NO: 10), Polymorphic 40 amino acid-[…] (SEQ ID NO: 4), and polymorphic 20 amino acid-[…] (SEQ ID NO: 3).
Expression of Nav1.5 and Fragments in HEK293 Cells: Transient transfection of Nav1.5 and Nav1.5 fragments into human embryonic kidney (HEK293) cells was accomplished using the Polyfect transfection kit (Qiagen, Valencia, Calif.) according to the manufacturer's protocol for 24 hours. When channels were expressed alone, […] of channel cDNA was used. For co-transfections, 1 μg of channel cDNA and 1 μg of fragment cDNA were combined.
Electrophysiology: Macroscopic sodium currents from transfected cells were recorded using the whole cell configuration of the patch clamp technique as previously described (Deschenes, I., et al., 2000 Cardiovasc. Res. 46: 55-65). Cells that emitted green fluorescence were considered successfully transfected. Patch electrodes were made from 1.5 mm thin walled glass capillaries (World Precision Instruments, Sarasota, Fla.). Low resistance electrodes (<2MΩ) were used, and a routine series resistance compensation of an Axopatch 200A was preformed to values >80% to minimize voltage clamp errors. Voltage clamp command pulses were generated by a microcomputer using PCLAMP software version 9.02 (Axon Instruments, Foster City, Calif.). To allow currents to stabilize, experiments were performed 10 minutes after entering whole cell configuration. Membrane currents were filtered at 5 kHZ and digitized with 12-bit resolution. The internal solution contained (in mmol/L) NaCl 35, CsF 105, EGTA 10, and Cs-HEPES 10 adjusted to pH7.4. […]
Whole cell sodium current densities were measured by dividing the peak current obtained from stepping in 10 mV intervals from −80 to 30 mV from the holding potential of −120 mV by the cell capacitance. Cell capacitance was determined by integrating the area under the capacitive transient of a pulse from −80 mV to −70 mV. […]
Voltage dependence of steady state inactivation was determined by 500 ms prepulses ranging from −140 to −30 mV (FIG. 7B inset). […]
Conductance was calculated from peak current obtained by holding the resting membrane potential at −120 mV and stepping in 10 mV intervals from −80 mV to 20 mV according to the equation: G=I/(Vm−Vrec)
The conductance was also fit to a Boltzmann distribution. Time constant of inactivation was measured by fitting individual current traces from the peak current to the end of the pulse with a single exponential: I(t)=A*exp(−t/τ)

YFP-1022 = assay: FRET folding study of non-mutated channel construct in HEK293 cells; assay type: cell-based, human; conditions: non-mutated YFP-1022 co-expressed with peptide
From the text: Image Analysis and Calculation of Fluorescence Resonance Energy Transfer Ratios: Images were acquired with and Olympus IX71 fluorescent microscope that was fitted with a Hamamatsu ORCA-ER charge coupled device (12 bit) and controlled by the SLIDEBOOK software package from Intelligent Imaging Innovations (Denver, Colo.). Filter cube specifications for the fluorescent channels were as follows for excitation and emission, respectively: enhanced cyan fluorescent protein (CFP), 430±25 and 470±30 nm; enhanced yellow fluorescent protein (YFP), 500±20 and 535±30 nm, and fluorescence resonance energy transfer (FRET), 430±25 and 535±30 nm.
Image analysis involved three basic operations: subtraction of background autofluorescence and blurred light, quantification of fluorescence intensity, and calculation of a corrected FRET (FRETc) using the following equation: FRETc=(IDA−aIAA−dIDD)/IDD,
Where IDA is the fluorescence intensity of the cell measured from the FRET filter set and IDD and IAA are the fluorescent intensities of the same cell measured from the CFP (donor) and YFP (acceptor) filter sets, respectively. The cross-talk coefficients, a and d, are considered constant and a property of our microscope's filter sets, with a=0.03 and d=0.63. The corrected FRET ratio (FRETc) includes normalization to IDD to correct for variances in protein expression from cell to cell. […]

[3] = test system: hNav1.5 protein fragments centered on 558 fused to YFP; assay: FRET between hNav1.5 protein fragments centered on 558 fused to CFP or YFP; assay type: cell-based, human; conditions: coexpressed with homotypic YFP fragment
From the text: (§4) The beam splitter was the Chroma 86002v2bs multiband beam splitter for ECFP and EYFP (Rockingham, Vt.).
(§5) The corrected FRET ratio was defined as FRETc/IDD.

[4] = biological target: T4, hNav1.5 protein fragments centered on 558 fused to YFP (Homo sapiens, UniProt Q14524); assay: as above; assay type: cell-based; conditions: coexpressed with heterotypic H558-YFPf, internalized compartments
T4 construct: Fragments centered on 558 (40 amino acids) were fused to either CFP or YFP; expressed in transfected cells
From the text: as §4, §5

[5] = WT channels treated with polymorphic peptide, HEK293

Question: For C[N+](C)(C)CCSS(C)(=O)=O.[Br-] [MTSET, [2-(trimethylammonium)ethyl]methanethiosulfonate bromide], which “decrease of peak current density” value (C373Y-SCN5A channels) is on record?
Answer: does not significantly decrease peak current densities; also recorded: does not block

Question: And the “decrease of whole-cell sodium current” value [1]?
Answer: 42.6±9.5% and 50%

Question: What about the “reduction of whole-cell sodium current” value [2] of the same compound?
Answer: 48.1±10.0% and 50%

Question: How did the current density (WT channels (Nav1.5); HEK293 cells, WT channels co-expressed with the 40 amino acid fragment, WT alone −337.7±105.8) turn out when “GSEADFADDENSTAGESESHRTSLLVPWPLRRTSAQGQPS [R558-40aa, 40 amino acid fragment of Nav1.5 containing the H558R polymorphism, expressed from cDNA]” was run?
Answer: −474.1±125.9 pA/pF

Question: What about the “Conductance (V1/2)” value (WT channels (Nav1.5); [5]) of the same compound?
Answer: −40.2 ± 3.3 mV

Question: And the “Steady State Inactivation (V1/2)” value (WT channels (Nav1.5); [5])?
Answer: −90.0 ± 1.6 mV

Question: And the “Time Constant of Inactivation compared to WT” value (WT channels (Nav1.5); WT channels with peptide, FIG. 7D)?
Answer: behaved similarly to WT

Question: And the “FRETc compared with YFP-1022 alone” value (YFP-1022)?
Answer: similar

Question: “H558-CFPf: hNav1.5 fragment centered on 558 (40 amino acids) with H558, fused to CFP (GSEADFADDENSTAGESESHHTSLLVPWPLRRTSAQGQPS; also: fused to CFP (carrier left off))” was tested. Which FRETc [3] did it give?
Answer: 0.01±0.01

Question: For “NSTAGESESHRTSLLVPWPL [R558-20aa, 20 amino acid fragment of Nav1.5 containing the H558R polymorphism, expressed from cDNA]”, which “FRETc compared with YFP-1022 alone” value (YFP-1022) is on record?
Answer: similar

Question: How did the FRETc [4] turn out when “R558-CFPf: hNav1.5 fragment centered on 558 (40 amino acids) with R558, fused to CFP (GSEADFADDENSTAGESESHRTSLLVPWPLRRTSAQGQPS; also: fused to CFP (carrier left off))” was run?
Answer: 0.04±0.02

Question: What about the FRETc [3] of the same compound?
Answer: 0.01±0.01
